{
  "source": "paper PMC11222147",
  "about": "“Host defence peptide plectasin targets bacterial cell wall precursor lipid II by a calcium-sensitive supramolecular mechanism” (Nature Microbiology, 2024)",
  "key": {"[1]": {"experiment": "Isothermal titration calorimetry with lipid II LUVs", "assay_type": "binding", "protocol": "About 200 nm large unilamellar vesicles (LUVs) were prepared from 2 mol% lipid II in DOPC by the extrusion technique. ITC measurements were conducted on a low-volume Affinity ITC (TA instruments). All measurements were conducted at 37 °C. Samples were degassed for 10 min before the ITC experiments. The cell was filled with plectasin (in 50 mM HEPES, 150 mM NaCl at pH = 7.2) and titrated with LUVs in the same buffer under constant stirring at 125 r.p.m. The data were analysed using the Nano Analyze software version 3.11.0 (TA Instruments). After baseline correction, the integrated peaks were fitted using an independent binding model. Each measurement was acquired in duplicate."}, "[2]": {"experiment": "HS-AFM oligomerization on supported lipid bilayers doped with lipid II", "settings": "DOPC/DOPG (1:1), 1% lipid II, 1 mM Ca^2+, up to 1 µM, n = 3", "description": "HS-AFM imaging was performed on a supported lipid bilayer deposited on mica using an amplitude modulation tapping mode HS-AFM from RIBM (Ando type)[11]. The lipid compositions are as stated in the experimental conditions of the corresponding results. Short cantilevers (∼7 μm) with a nominal spring constant of 0.15 N m^−1 were used (USC-F1.2-k0.15, NanoWorld) for all experiments. A minimal imaging force was applied by using a small set-point amplitude, typically 80% of the free amplitude (for 1–2 nm of free amplitude). […] Imaging was started on the lipid bilayer surface in recording buffer. […] All reported experiments were repeated for at least three times for each condition. Image analysis was done using Igor Pro version 6.22 (Wavemetrics) with RIBM script and ImageJ version 1.501 with minimal image corrections (tilt, drift and background corrections). The time stamps on HS-AFM videos are relative to plectasin addition into the liquid chamber. Image acquisition rate varied from 0.5 frames per second to 2 frames per second (see the figure/video legends)."}, "S. simulans 22 [3]": {"tested_on": "S. simulans 22", "experiment": "MIC assays under standard conditions", "assay_type": "cell-based, Staphylococcus simulans", "settings": "Supplementary Table 1; cation-adjusted MHB, 37 °C, 16–20 h", "method_in_brief": "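Broth microdilution in cation-adjusted MHB, inoculum from OD600 0.5 TSB culture diluted 100-fold, 37 °C with shaking. Streptococci: 5% lysed horse blood, 5% CO2, MIC read visually at 20–24 h; S. simulans read at 16–20 h.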"}, "S. pneumoniae serotype 8": {"tested_on": "S. pneumoniae serotype 8", "experiment": "MIC assays under standard conditions", "assay_type": "cell-based, Streptococcus pneumoniae", "settings": "Supplementary Table 1; cation-adjusted MHB + 5% lysed horse blood, 5% CO2, 20–24 h", "protocol": "(§1) Plectasin and analogues were serially diluted in cation-adjusted Mueller–Hinton broth (MHB) in round-bottom polypropylene 96-well plates (50 µl per well). Selected bacterial strains were grown from glycerol stocks on blood agar plates. Individual colonies were inoculated in TSB and incubated at 37 °C while shaking until OD600 reached 0.5. Bacterial suspensions were then diluted 100 times in cation-adjusted MHB and distributed (50 μl per well) over the microplate containing the diluted plectasin solutions. Plates were covered by a gas-permeable adhesive membrane and incubated at 37 °C while shaking. MICs were determined by visual inspection after 16–20 h (Staphylococcus) or 20–24 h (Streptococcus). For Streptococcus strains, the broth was additionally supplemented with 5% lysed horse blood, and the microplates were incubated under 5% CO2 atmosphere. In the assays, we used the following strains: S. simulans, S. pneumoniae serotype 8, S. pneumoniae ATCC6305 and Streptococcus pyogenes M3."}, "S. pyogenes M3": {"tested_on": "S. pyogenes M3", "experiment": "MIC assays under standard conditions", "assay_type": "cell-based, Streptococcus pyogenes", "settings": "Supplementary Table 1; cation-adjusted MHB + 5% lysed horse blood, 5% CO2, 20–24 h", "protocol": "as §1"}, "[4]": {"settings": "cited from earlier work", "source_text": "Extended Data Fig. 5 Plectasin binds to bivalent cations with high affinity and its activity is enhanced by calcium ions. Representative ITC traces of the binding of bivalent cations to plectasin in solution and the effect of Mg^2+ on plectasin-lipid II binding. Heat releases and fits of Mg^2+ (A) or Ca^2+ (B) titrated to plectasin in solution. C) Calculated affinities and thermodynamic parameters experiments from (A) and (B), conducted in duplicate. Heat release traces and fits of the titration of Lipid II DOPC vesicles to plectasin without (D) and with (E) the addition of Mg^2+. F,G). Ca^2+ ..."}, "S. simulans 22 [5]": {"tested_on": "S. simulans 22", "assay_type": "cell-based, Staphylococcus simulans", "settings": "Ca^2+ variable assay", "protocol": "Cation-depleted MHB was prepared as previously described[18] and supplemented with MgCl2 (0.5 mM) and ZnSO4 (10 µM). Plectasin was serially diluted twofold over a 96-well polypropylene plate. Serial dilutions of Ca^2+ in calcium-depleted medium were subsequently added to the wells containing the plectasin dilution series, followed by addition of bacterial suspensions. MICs were determined by visual inspection after 16–20 h (Staphylococcus). The effect of reduced Ca^2+ levels on S. simulans growth in the absence of plectasin was assessed by monitoring growth at 37 °C by OD600 over 18 h (Supplementary Fig. 4)."}},
  "note": "“Also recorded” adds a separate entry of the source. Where a SMILES comes first, the peptide text is derived from it. Bridges are numbered along the chain shown (N, C = ends).",
  "data": [
    {"molecule": "CC[C@H](C)[C@@H]1NC(=O)[C@H](CO)NC(=O)[C@H](CCCCN)NC(=O)[C@@H]2CSSC[C@@H](C(=O)N[C@@H](Cc3ccc(O)cc3)C(=O)O)NC(=O)[C@H](CCCCN)NC(=O)[C@@H]3CSSC[C@H](NC(=O)[C@H](CCC(N)=O)NC(=O)[C@H](CCSC)NC(=O)[C@H](CC(=O)O)NC(=O)[C@H](CC(=O)O)NC(=O)[C@H](CCC(=O)O)NC(=O)[C@H](CC(=O)O)NC(=O)[C@H](Cc4c[nH]c5ccccc45)NC(=O)[C@@H]4CCCN4C(=O)CNC(=O)[C@H](CC(N)=O)NC(=O)[C@@H](NC(=O)CNC(=O)[C@H](Cc4ccccc4)NC(=O)CN)CSSC[C@H](NC(=O)[C@H](Cc4ccc(O)cc4)NC(=O)CNC(=O)CNC(=O)[C@H](CCCCN)NC(=O)[C@H](Cc4ccc(O)cc4)NC(=O)CNC(=O)[C@H](CCCCN)NC1=O)C(=O)N[C@@H](C)C(=O)N[C@@H](CCCCN)C(=O)NCC(=O)NCC(=O)N[C@@H](Cc1ccccc1)C(=O)N[C@@H](C(C)C)C(=O)N3)C(=O)N[C@@H](C)C(=O)N[C@@H](CC(N)=O)C(=O)N[C@@H](Cc1c[nH]cn1)C(=O)N2", "note": "[H16A] (H-GFGCNGPWDEDDMQCANHCKSIKGYKGGYCAKGGFVCKCY-OH; disulfide 4-30, 15-37, 19-39 (inferred); N-terminus and C-terminus assumed)", "values": [
      {"measurement": "loss in lipid II binding affinity (ITC)", "setting": "[1]; mutant vs plectasin", "result": "> 10", "unit": "fold"},
      {"measurement": "oligomerization in HS-AFM (in words)", "setting": "[2]", "result": "oligomerization was not observed; also recorded: No plectasin oligomerization is observed"},
      {"measurement": "Minimum inhibitory concentration, S. simulans", "setting": "S. simulans 22 [3]", "result": "> 50", "unit": "µg/mL"}
    ]},
    {"molecule": "CSCC[C@@H]1NC(=O)[C@H](CC(=O)O)NC(=O)[C@H](CC(=O)O)NC(=O)[C@H](CCC(=O)O)NC(=O)[C@H](CC(=O)O)NC(=O)[C@H](Cc2c[nH]c3ccccc23)NC(=O)[C@@H]2CCCN2C(=O)CNC(=O)[C@H](CC(N)=O)NC(=O)[C@@H](NC(=O)CNC(=O)[C@H](Cc2ccccc2)NC(=O)CN)CSSC[C@@H]2NC(=O)[C@H](Cc3ccc(O)cc3)NC(=O)CNC(=O)CNC(=O)[C@H](CCCCN)NC(=O)[C@H](Cc3ccc(O)cc3)NC(=O)CNC(=O)[C@H](CCCCN)NC(=O)[C@H](C)NC(=O)[C@H](CO)NC(=O)[C@H](CCCCN)NC(=O)[C@@H]3CSSC[C@@H](C(=O)N[C@@H](Cc4ccc(O)cc4)C(=O)O)NC(=O)[C@H](CCCCN)NC(=O)[C@H](CSSC[C@H](NC(=O)[C@H](CCC(N)=O)NC1=O)C(=O)N[C@@H](Cc1c[nH]cn1)C(=O)N[C@@H](CC(N)=O)C(=O)N[C@@H](Cc1c[nH]cn1)C(=O)N3)NC(=O)[C@H](C(C)C)NC(=O)[C@H](Cc1ccccc1)NC(=O)CNC(=O)CNC(=O)[C@H](CCCCN)NC(=O)[C@H](C)NC2=O", "note": "[I22A] (H-GFGCNGPWDEDDMQCHNHCKSAKGYKGGYCAKGGFVCKCY-OH; disulfide 4-30, 15-37, 19-39 (inferred); N-terminus and C-terminus assumed)", "values": [
      {"measurement": "Minimum inhibitory concentration, S. pneumoniae serotype 8", "setting": "S. pneumoniae serotype 8", "result": "> 25", "unit": "µg/mL"},
      {"measurement": "lipid II binding by ITC (in words)", "setting": "[1]; LUVs 2 mol% lipid II in DOPC, 37 °C", "result": "do not bind lipid II"},
      {"measurement": "Minimum inhibitory concentration, S. pyogenes M3", "setting": "S. pyogenes M3", "result": "> 25", "unit": "µg/mL"}
    ]},
    {"molecule": "daptomycin [reference compound]", "values": [
      {"measurement": "increase in MIC if Ca^2+ is replaced by Mg^2+", "setting": "[4]", "result": "> 100"},
      {"measurement": "improvement of antimicrobial activity with increasing Ca^2+ concentration", "setting": "S. simulans 22 [5]", "result": "> 60", "unit": "fold"}
    ]}
  ]
}
